{
  "source": "patent US20060286574A1",
  "about": "(priority 2005, published 2006)",
  "molecules": {"B1": {"name": "lambda gam: protein used by λ phage to inhibit E. coli RecB; overexpressed from an arabinose-inducible vector (protein, UniProt P03702 1-138, looked up)", "Host-nuclease inhibitor …": "MDINTETEIKQKHSLTPFPVFLISPAFRGRYFHSYFRSSAMNAYYIQDRLEAQSWARHYQQLAREEKEAELADDMEKGLPQHLFESLCIDHLQRHGASKKSITRAFDDDVEFQERMAEHIRYMVETIAHHQVDIDSEV"}},
  "key": {"E. coli [1]": {"tested_on": "E. coli", "format": "cell-based", "conditions": "for enhancement of the activity of ciprofloxacin: at 25 μM"}, "E. coli ΔrecB strains": {"tested_on": "E. coli ΔrecB strains", "format": "cell-based", "conditions": "putative ΔrecB transductants and parental ΔrecB strain"}, "K. pneumoniae": {"tested_on": "K. pneumoniae", "format": "in vivo", "conditions": "mice; wild type vs ΔrecB K. pneumoniae; 0.064-15 mg/kg/day ciprofloxacin; 48 hour endpoint; FIG. 6"}, "E. coli [2]": {"tested_on": "E. coli"}, "E. coli [3]": {"tested_on": "E. coli", "assay": "Effect of gam expression on ciprofloxacin efficacy in E. coli", "format": "cell-based"}, "P. aeruginosa": {"tested_on": "P. aeruginosa", "assay": "Effect of gam expression on ciprofloxacin efficacy in P. aeruginosa", "format": "cell-based"}},
  "data": [
    {"molecule": "Cn1c2ccccc2n2c3ncccc3c(=O)c(C#N)c12", "note": "[Formula IIb]", "values": [
      {"measurement": "enhancement of the activity of ciprofloxacin", "setting": "E. coli [1]", "value": "enhanced the activity of ciprofloxacin"}
    ]},
    {"molecule": "Cn1c2ccccc2n2c3cnccc3c(=O)c(C#N)c12", "note": "[Formula IIc]", "values": [
      {"measurement": "enhancement of the activity of ciprofloxacin", "setting": "E. coli [1]", "value": "enhanced the activity of ciprofloxacin"}
    ]},
    {"molecule": "Nc1ccc2noc3c2c1C(=O)c1ccccc1-3", "note": "[Formula Ia]", "values": [
      {"measurement": "MIC shift in ciprofloxacin responsiveness", "setting": "E. coli [1]", "value": 10, "unit": "×"}
    ]},
    {"molecule": "CO[C@@]12[C@H](COC(N)=O)C3=C(C(=O)C(C)=C(N)C3=O)N1C[C@@H]1N[C@@H]12", "note": "[Mitomycin C]", "values": [
      {"measurement": "Mitomycin C MIC of ΔrecB strains, lower compared to recB+ strains", "setting": "E. coli ΔrecB strains", "value": "about 8 fold"}
    ]},
    {"molecule": "O=C(O)c1cn(C2CC2)c2cc(N3CCNCC3)c(F)cc2c1=O", "note": "[ciprofloxacin]", "values": [
      {"measurement": "reduction in CFU in thigh (log CFU/gm of thigh)", "setting": "K. pneumoniae", "value": "significantly greater reduction in CFU for the recB mutants relative to the wild type strain"},
      {"measurement": "cells killed", "setting": "E. coli [2]", "value": 99, "unit": "%"}
    ]},
    {"molecule": "B1", "values": [
      {"measurement": "effect of lambda gam overexpression on ciprofloxacin sensitivity", "setting": "E. coli [3]; strain lacking the RecB target (RTC0148) relative to empty vector strain (RTC0147)", "value": "no effect"},
      {"measurement": "decrease in the ciprofloxacin IC50 on overexpression of lambda gam", "setting": "E. coli [3]; wild-type E. coli (RTC0142) and gyrA(S83L) (RTC0144) relative to empty vector controls (RTC0141, RTC0143)", "value": "5-8 fold"},
      {"measurement": "effect of lambda gam overexpression on ciprofloxacin sensitivity", "setting": "P. aeruginosa; strain lacking the RecB target (RTC1019) relative to empty vector strain (RTC1016)", "value": "no effect"},
      {"measurement": "decrease in the ciprofloxacin MIC on overexpression of lambda gam", "setting": "P. aeruginosa; wild-type P. aeruginosa (RTC1017) and gyrA(S831) mutant (RTC1018) relative to empty vector controls (RTC1014, RTC1015)", "value": "2-4 fold"}
    ]}
  ]
}
